ChEMBL document CHEMBL3507680, “University of Dundee, Gates Library screen for HepG2 cell viability”

Experiment: Human HepG2 cell viability assay in 384 well format
Type: toxicity, cell-based
Set-up: dose 125 nL, time 70.5 hour; cytotoxicity at 70.5 h: concentration not given beside the values
Settings: HepG2 cells, read-out: Inhibition
For Cc1cc(NC(=O)Cn2cnc(-c3cccs3)cc2=O)no1, the cytotoxicity at 70.5 h was -2.01%. CCN(CC)C(=O)[C@@H]1C[C@@H](N)CN1c1nc(N(C)C)nc(C)c1C gave a cytotoxicity at 70.5 h of 2.56%. O=C1CCCN1CCCC(=O)N1CCCC(c2ccn[nH]2)C1 (centres undefined) showed a cytotoxicity at 70.5 h of -12%. For Cc1cccc(C)c1Nc1noc2c1CN(C(=O)c1ccn(C)n1)CC2, the cytotoxicity at 70.5 h was 46.4%. Cc1ccncc1NS(=O)(=O)c1ccc(Cl)s1 gave a cytotoxicity at 70.5 h of -3.59%. Cc1nc[nH]c1CN1C[C@@H]2CC[C@H](C1)N(C(=O)CCn1cncn1)C2 gave a cytotoxicity at 70.5 h of -15%. In the case of CC(C)Oc1ccccc1CNC(=O)N(C)C(C)CS(C)(=O)=O (centres undefined), the cytotoxicity at 70.5 h is reported as 16.1%. In the case of CNc1nc(C(=O)N2CCCCC2c2ccc(CN(C)C)cc2)cs1 (centres undefined), the cytotoxicity at 70.5 h is reported as 1.16%. Cn1nc(-c2ccc(F)cc2)cc1C(=O)NCCn1ccnc1 showed a cytotoxicity at 70.5 h of -10.2%. CCCS(=O)(=O)N1CCC2(CC(C(=O)NCc3cccnc3)=NO2)C1 (centres undefined) gave a cytotoxicity at 70.5 h of -10.3%. For CCn1cc(S(=O)(=O)Nc2nc3c(s2)CC(C)CC3)cn1 (centres undefined), the cytotoxicity at 70.5 h was -6.65%. O=C(c1ccc2c(c1)OCCCO2)N1CCCC(n2ccnc2)C1 (centres undefined) gave a cytotoxicity at 70.5 h of -8.38%. Compound O=C(NCc1ccnc(OCC2CC2)c1)C1COc2ccccc2O1 (centres undefined) has a cytotoxicity at 70.5 h of 0.151%. Work on Cc1nnc2n1CCN(C(=O)c1cn(-c3ccccc3)nn1)C2 yielded a cytotoxicity at 70.5 h of -1.52%. For CNC(=O)c1cccc(CNC(C)c2ccc(F)cc2N(C)C)c1 (centres undefined), the cytotoxicity at 70.5 h was -7.51%. Compound Cc1cccc(Oc2nccnc2C2CCN(C(=O)C(C)(C)N)CC2)c1 has a cytotoxicity at 70.5 h of -4.07%. Work on CCn1cc(C(=O)N2C[C@H]3C[C@H](Oc4ccccc4)C[C@H]3C2)cn1 yielded a cytotoxicity at 70.5 h of -0.374%. Work on Cc1cc(C)n(C2CCCN(C(=O)Cc3csc(C)n3)C2)n1 (centres undefined) yielded a cytotoxicity at 70.5 h of 12.8%. In the case of CC(C)(C)S(=O)(=O)CCNC1CSCCc2ccccc21 (centres undefined), the cytotoxicity at 70.5 h is reported as 27.7%. CCc1nccn1C1CCCN(C(=O)c2ccc(N(C)C)nn2)C1 (centres undefined) gave a cytotoxicity at 70.5 h of -7.7%. Work on Cc1cnn(CC2CN(Cc3nc(C)no3)CCO2)c1 (centres undefined) yielded a cytotoxicity at 70.5 h of -1.3%. For Cc1ccc(N2CCCC3(COCCN(c4nccs4)C3)C2)nn1 (centres undefined), the cytotoxicity at 70.5 h was -9.95%. Work on CSc1cccc(CNC(=O)[C@H]2CNC[C@H](C(=O)N3CCOCC3)C2)c1 yielded a cytotoxicity at 70.5 h of -2.2%. With Cc1ccc2c(c1)C(NCc1ncnn1C)CC2 (centres undefined) the cytotoxicity at 70.5 h was -5.24%. Compound COC(=O)c1ccc(CN2CCC(c3noc(C)n3)CC2)s1 has a cytotoxicity at 70.5 h of -8.54%. Compound CC1CCc2n[nH]c(C(=O)NCCc3ccco3)c2C1 (centres undefined) has a cytotoxicity at 70.5 h of -2.98%. In the case of COc1cc(C)nc(N2CCN(C(=O)CCc3ccsc3)CC2)n1, the cytotoxicity at 70.5 h is reported as -4.26%. CN(Cc1ccncc1)C1COC2(CCN(Cc3ccco3)CC2)C1 (centres undefined) showed a cytotoxicity at 70.5 h of 9.94%. Compound Cc1nn(C)c(C)c1CN(Cc1cccn1-c1ccccn1)C(C)C has a cytotoxicity at 70.5 h of 9.47%. Compound O=C(C1CCC1)N1CCN(c2snc3ccccc23)CC1 has a cytotoxicity at 70.5 h of 44.7%. For COc1ncccc1C(=O)Nc1cccc(C[S+](C)[O-])c1C (centres undefined), the cytotoxicity at 70.5 h was -6.07%. With O=C(c1cc(-n2cccn2)ccc1Cl)N1CCCC(N2CCCC2)C1 (centres undefined) the cytotoxicity at 70.5 h was -5.55%. Cc1noc([C@@H]2C[C@H]3OCC[C@H]3N(Cc3sccc3C)C2)n1 gave a cytotoxicity at 70.5 h of 4.03%. With CC(C)Oc1cc(N2C[C@H](C3CC3)[C@@H](N)C2)nc(N)n1 the cytotoxicity at 70.5 h was -25.3%. Fc1ccc(CN2CCC3(CCN(Cc4nccs4)CC3)C2)cc1 showed a cytotoxicity at 70.5 h of -0.695%. CCN1CCn2c(C)cnc2C12CCN(C(=O)NC)CC2 gave a cytotoxicity at 70.5 h of -6.2%. With N[C@@H]1c2ccccc2C2(CCN(c3ncccc3C(F)(F)F)CC2)[C@H]1O the cytotoxicity at 70.5 h was 44.1%. Compound COc1cccc(-c2noc(C3CCN(Cc4cn(C)nc4C)C3)n2)c1 (centres undefined) has a cytotoxicity at 70.5 h of -5.53%. c1ccc(CN2CCC3(CC2)Nc2ccccc2CO3)cc1 showed a cytotoxicity at 70.5 h of -6.59%. With O=C(c1ccco1)N1C[C@@H]2CCN(c3cccnc3)C[C@@H]2C1 the cytotoxicity at 70.5 h was -11.6%. With Fc1ccc(CN2Cc3nccn3CC(CN3CCOCC3)C2)cc1 (centres undefined) the cytotoxicity at 70.5 h was -8.01%. With CCOC(=O)CCNC(=O)N1CCCC(CNC(=O)c2cccs2)C1 (centres undefined) the cytotoxicity at 70.5 h was -6.29%. Work on Cc1cc(S(=O)(=O)N2CCCc3cc(F)cc(F)c32)sc1C(=O)O yielded a cytotoxicity at 70.5 h of 11.1%. With COc1ccc(OC2CCN(C(=O)[C@@H](N)Cc3c[nH]cn3)CC2)cc1 the cytotoxicity at 70.5 h was 1.71%.
